Patent publication US20250304576A1 (Cancer Research Technology Limited, priority 2022, published 2025)

How the values were obtained:
LNCaP cells = assay: Cell viability, alamarBlue assay, LNCaP cells; assay type: cell-based; settings: treatment for 48 hours
Procedure: (§1) PC3, PC3M, LNCaP Al, cells were grown in RPMI 1640 media and PANC1 and MiaPac-2 cells were grown in Dulbecco's Modified Eagle's Media (DMEM) which was supplemented with 10% (v/v) Foetal Calf Serum (FCS) (Charcoal-stripped for LNCaP Als), L-glutamine ([…]) and penicillin/streptomycin (250 units/ml; 100 μg/ml). All cells were incubated in a humidified atmosphere at 37° C. and 5% (v/v) CO2. Cells were cultured as a monolayer in 10 ml media in […] vented flasks and grown until subculture was required.
(§2) Cell viability determination: Cells (1000 cells/100 μl) were plated into 96 well plates and incubated for 24 hours at 37° C. and 5% (v/v) CO2 before being treated with SU1433. After incubation with SU1433 for 48 h, cell viability was measured using the alamarBlue® Assay (Thermofisher, UK). The media was removed and replaced with a 1:10 media to alamar blue solution. After a 1 h incubation at 37° C. and 5% CO2, the fluorescence was measured at 530-560 nm excitation wavelength and 590 nm emission wavelength in a fluorescence plate reader. All treatment were measured in duplicate wells and repeated at least 3 times. The results represent the fractional survival of untreated controls±SD.

PC3M cells = assay: Cell viability, alamarBlue assay, PC3M cells; assay type: cell-based; settings: treatment for 48 hours
Procedure: as §1, §2

CC(C)(C)C#Cc1cc(-c2ccnc(N)c2)cc2c(N)n[nH]c12 [Example 137, 5-(2-Aminopyridin-4-yl)-7-(3,3-dimethylbut-1-yn-1-yl)-1H-indazol-3-amine]
viability of LNCaP cells (LNCaP cells): reduced the viability
viability of PC3M cells (PC3M cells): reduced the viability
